From patent US20250368616A1, “NITROGEN-CONTAINING HETEROCYCLIC DERIVATIVE INHIBITOR, AND PREPARATION METHOD THEREFOR AND USE THEREOF” (SHANGHAI HANSOH BIOMEDICAL CO., LTD., priority 2021, published 2025)

tested on: Ba/F3 EGFR Del19/C797S cells; assay: Cell proliferation inhibition assay (Cell Titer-Glo), Ba/F3 EGFR Del19/C797S; assay type: cell-based; details: 72 hours, read-out: Ba/F3 EGFR Del19_C797S IC50
Excerpt: Test Example 2: Cell Proliferation Inhibition Assay
Experimental objective: The objective of this test example is to test the inhibitory activity of compounds on the proliferation of different EGFR C797S drug-resistant mutant cell lines Ba/F3 EGFR Del19/T790M/C797S, Ba/F3 EGFR L858R/T790M/C797S, and Ba/F3 EGFR Del19/C797S.
• Ba/F3 EGFR Del19/T790M/C797S cells were purchased from KYinno Biotechnology Co., Ltd.; • Ba/F3 EGFR Del19/C797S cells were purchased from CoBioer Biosciences Co., Ltd.; • Ba/F3 EGFR L858R/T790M/C797S cells were purchased from CoBioer Biosciences Co., Ltd.; • Cell Titer-Glo was purchased from Promega, with a catalog number of G7573; • RPMI 1640 was purchased from Gibco, with a catalog number of 22400089; • FBS was purchased from Gibco, with a catalog number of 10091148; • cell culture plates were purchased from Corning, with a catalog number of 3610.
The inhibitory activity of the compound on the proliferation of different EGFR C797S drug-resistant mutant cell lines was detected using the Cell Titer-Glo method. The different cell lines were cultured in RPMI 1640 complete culture medium containing 10% FBS under conditions of 37° C. and 5% CO2, the cells were collected by centrifugation when growing to a certain density, and adjusted to appropriate cell density after counting, the cells were spread on a white 96-well plate at 90 μL/well, and cultured in a 37° C., 5% CO2 incubator overnight, prepared compound solutions of different concentrations were added at 10 μL/well, corresponding solvent controls were set, and all wells were cultured in a 37° C., 5% CO2 incubator for 72 hours, 50 μL of CellTiter-Glo solution was added to each well, shook and mixed evenly, and incubated in the dark for 10 minutes, and a BioTek Synergy H1 microplate reader was used for reading.
The luminescence signal value was used to calculate the inhibition rate. Graphpad Prism software was used to fit the concentration and inhibition rate to a nonlinear regression curve, so as to obtain the IC50 value, as shown in Tables 3 and 4 below for details.

SMILES	IC50 [nM]
CC(C)c1ccc(N2C[C@H](CS(C)(=O)=O)[C@H]2C)c2cnc(Nc3ccnc(-c4cnn(C5(C#N)CC5)c4)n3)cc12 [Example 13, 1-(4-(4-((5-isopropyl-8-((2R,3S)-2-methyl-3-((methanesulfonyl)methyl)azetidin-1-yl)isoquinolin-3-yl)amino)pyrimidin-2-yl)-1H-pyrazol-1-yl)cyclopropane-1-carbonitrile]	82
Cc1nn(C)cc1-c1nccc(Nc2cc3c(C(C)C)ccc(N4CC(N5CCCS5(=O)=O)C4)c3cn2)n1 [Example 69, 2-(1-(3-((2-(1,3-dimethyl-1H-pyrazol-4-yl)pyrimidin-4-yl)amino)-5-isopropylisoquinolin-8-yl)azetidin-3-yl)isothiazolidine 1,1-dioxide]	51
CC#CCn1cc(-c2nccc(Nc3cc4c(C(C)C)ccc(N5C[C@H](CS(C)(=O)=O)[C@H]5C)c4cn3)n2)cn1 [Example 52, N-(2-(1-(but-2-yn-1-yl)-1H-pyrazol-4-yl)pyrimidin-4-yl)-5-isopropyl-8-((2R,3S)-2-methyl-3-((methanesulfonyl)methyl)azetidin-1-yl)isoquinolin-3-amine]	49
CCc1nn(C)cc1-c1nccc(Nc2cc3c(C(C)C)ccc(N4C[C@H](CS(C)(=O)=O)[C@H]4C)c3cn2)n1 [Example 57, N-(2-(3-ethyl-1-methyl-1H-pyrazol-4-yl)pyrimidin-4-yl)-5-isopropyl-8-((2R,3S)-2-methyl-3-((methanesulfonyl)methyl)azetidin-1-yl)isoquinolin-3-amine]	26
Cc1nn(C)cc1-c1nccc(Nc2cc3c(C(C)C)ccc(N4CC(CS(C)(=O)=NC#N)C4)c3cn2)n1 (stereo not shown) [Example 83, N-(((1-(3-((2-(1,3-dimethyl-1H-pyrazol-4-yl)pyrimidin-4-yl)amino)-5-isopropylisoquinolin-8-yl)azetidin-3-yl)methyl)(methyl)(carbonyl)-l6-sulfanylidene)cyanamide]	74
Cc1nn(CCO)cc1-c1nccc(Nc2cc3c(C(C)C)ccc(N4C[C@H](CS(C)(=O)=O)[C@H]4C)c3cn2)n1 [Example 58, 2-(4-(4-((5-isopropyl-8-((2R,3S)-2-methyl-3-((methanesulfonyl)methyl)azetidin-1-yl)isoquinolin-3-yl)amino)pyrimidin-2-yl)-3-methyl-1H-pyrazol-1-yl)ethan-1-ol]	52
CC(C)c1ccc(N2C[C@H](CS(C)(=O)=O)[C@H]2C)c2cnc(Nc3ccnc(-c4cn(C)nc4F)n3)cc12 [Example 62, N-(2-(3-fluoro-1-methyl-1H-pyrazolyl-4-yl)pyrimidin-4-yl)-5-isopropyl-8-((2R,3S)-2-methyl-3-((methanesulfonyl)methyl)azabut-1-yl)isoquinolin-3-amine]	40
COC1(n2cc(-c3nccc(Nc4cc5c(C(C)C)ccc(N6C[C@H](CS(C)(=O)=O)[C@H]6C)c5cn4)n3)cn2)CC1 [Example 49, 5-isopropyl-N-(2-(1-(1-methoxycyclopropyl)-1H-pyrazol-4-yl)pyrimidin-4-yl)-8-((2R,3S)-2-methyl-3-((methanesulfonyl)methyl)azetidin-1-yl)isoquinolin-3-amine]	41
CC(C)c1ccc(N2C[C@H](CS(C)(=O)=O)[C@H]2C)c2cnc(Nc3ccnc(-c4cn(CCC#N)nc4Cl)n3)cc12 [Example 67, 3-(3-chloro-4-(4-((5-isopropyl-8-((2R,3S)-2-methyl-3-((methanesulfonyl)methyl)azetidin-1-yl)isoquinolin-3-yl)amino)pyrimidin-2-yl)-1H-pyrazol-1-yl)propanenitrile]	20
CC(C)c1ccc(N2CC(N3CCCS3(=O)=O)C2)c2cnc(Nc3ccnc(-c4cn(C)nc4Cl)n3)cc12 [Example 68, 2-(1-(3-((2-(3-chloro-1-methyl-1H-pyrazol-4-yl)pyrimidin-4-yl)amino)-5-isopropylisoquinolin-8-yl)azetidin-3-yl)isothiazolidine 1,1-dioxide]	21
[2H]C([2H])([2H])n1cc(-c2nccc(Nc3cc4c(C(C)C)ccc(N5C[C@H](CS(C)(=O)=O)[C@H]5C)c4cn3)n2)c(F)n1 [Example 65, N-(2-(3-fluoro-1-(methyl-d3)-1H-pyrazol-4-yl)pyrimidin-4-yl)-5-isopropyl-8-((2R,3S)-2-methyl-3-((methylsulfonyl)methyl)azabut-1-yl)isoquinolin-3-amine]	84
CC(C)c1c(F)cc(N2C[C@H](CS(C)(=O)=O)[C@H]2C)c2cnc(Nc3ccnc(-c4cnn(C)c4)n3)cc12 [Example 39, 6-fluoro-5-isopropyl-N-(2-(1-methyl-1H-pyrazol-4-yl)pyrimidin-4-yl)-8-((2R,3S)-2-methyl-3-((methanesulfonyl)methyl)azetidin-1-yl)isoquinolin-3-amine]	73
CC(C)c1ccc(N2C[C@H](CS(C)(=O)=O)[C@H]2C)c2cnc(Nc3ccnc(-c4cn(C5COC5)nc4Cl)n3)cc12 [Example 81, N-(2-(3-chloro-1-(oxetan-3-yl)-1H-pyrazol-4-yl)pyrimidin-4-yl)-5-isopropyl-8-((2R,3S)-2-methyl-3-((methanesulfonyl)methyl)azetidin-1-yl)isoquinolin-3-amine]	50
CC(C)c1ccc(N2C[C@H](CS(C)(=O)=O)[C@H]2C)c2cnc(Nc3ccnc(-c4cn(C)nc4C#N)n3)cc12 [Example 55, 4-(4-((5-isopropyl-8-((2R,3S)-2-methyl-3-((methanesulfonyl)methyl)azetidin-1-yl)isoquinolin-3-yl)amino)pyrimidin-2-yl)-1-methyl-1H-pyrazole-3-carbonitrile]	25
Cc1nn(C)cc1-c1nccc(Nc2cc3c(C(C)C)ccc(N4CC(NS(C)(=O)=O)C4)c3cn2)n1 [Example 60, N-(1-(3-((2-(1,3-dimethyl-1H-pyrazol-4-yl)pyrimidin-4-yl)amino)-5-isopropylisoquinolin-8-yl)azetidin-3-yl)methanesulfonamide]	26
[2H]C([2H])([2H])n1cc(-c2nccc(Nc3cc4c(C(C)C)ccc(N5C[C@H](CS(C)(=O)=O)[C@H]5C)c4cn3)n2)c([N+](=O)[O-])n1 [Example 64, 5-isopropyl-8-((2R,3S)-2-methyl-3-((methanesulfonyl)methyl)azetidin-1-yl)-N-(2-(1-(methyl-d3)-3-nitro-1H-pyrazol-4-yl)pyrimidin-4-yl)isoquinolin-3-amine]	62
CC(C)c1ccc(N2CC(CC#N)C2)c2cnc(Nc3ccnc(-c4cnn(S(=O)(=O)C5CC5)c4)n3)cc12 [Example 40, 2-(1-(3-((2-(1-(cyclopropylsulfonyl)-1H-pyrazol-4-yl)pyrimidin-4-yl)amino)-5-isopropylisoquinolin-8-yl)azetidin-3-yl)acetonitrile]	70
CC(C)c1ccc(N2CC(C[S+](C)[O-])C2)c2cnc(Nc3ccnc(-c4cn(C)nc4Cl)n3)cc12 (stereo not shown) [Example 76, N-(2-(3-chloro-1-methyl-H-pyrazol-4-yl)pyrimidin-4-yl)-5-isopropyl-8-(3-((methylsulfinyl<sulfenyl>)methyl)azetidin-1-yl)isoquinolin-3-amine]	63
C#CCn1cc(-c2nccc(Nc3cc4c(C(C)C)ccc(N5C[C@H](CS(C)(=O)=O)[C@H]5C)c4cn3)n2)cn1 [Example 53, 5-isopropyl-8-((2R,3S)-2-methyl-3-((methanesulfonyl)methyl)azetidin-1-yl)-N-(2-(1-(prop-2-yn-1-yl)-1H-pyrazol-4-yl)pyrimidin-4-yl)isoquinolin-3-amine]	49
